Measured values published in patent US10464947B2 (Incyte Corporation, priority 2013, dated 2019).
pIC50: −log10 of the molar value. Where a name gives a salt, the structure may show the parent alone.

System: KMS.12.BM cells
Assay: KMS.12.BM Cell Viability Assay (Example B1)
Type: cell-based, human
Details: Homo sapiens, 72 h, 3 days, Cell Titer-GLO, read-out: KMS cellular IC50
How it was run: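 KMS.12.BM human myeloma cells, 5000 cells/well in RPMI with 10% FBS, exposed to a compound concentration range for 3 days. Viable cells measured by ATP-based Cell Titer-GLO luminescence after 10 min at room temperature.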

Compound | pIC50
CCS(=O)(=O)N[C@@H]1CCN(c2nc3ccc(-c4c(C)noc4C)c4c3n2[C@@H](c2ccccn2)CO4)C1 [Example 214, N-{(3R)-1-[(4S)-7-(3,5-dimethylisoxazol-4-yl)-4-pyridin-2-yl-4,5-dihydroimidazo[1,5,4-de][1,4]benzoxazin-2-yl]pyrrolidin-3-yl}ethanesulfonamide] | > 6.00
Cc1noc(C)c1-c1ccc2[nH]c(=O)n3c2c1CCC3c1ccccn1 (stereo not shown) [Example 123, 7-(3,5-Dimethylisoxazol-4-yl)-4-pyridin-2-yl-5,6-dihydro-4H-imidazo[4,5,1-ij]quinolin-2(1H)-one trifluoroacetate] | > 6.00
CCNc1nc2c(F)cc(-c3c(C)noc3C)c3c2n1C(c1cccnc1)CO3 (stereo not shown) [Example 158, 7-(3,5-Dimethylisoxazol-4-yl)-N-ethyl-9-fluoro-4-pyridin-3-yl-4,5-dihydroimidazo[1,5,4-de][1,4]benzoxazin-2-amine] | > 6.00
Cc1noc(C)c1-c1ccc2[nH]c(=O)n3c2c1OCC3c1ccc(F)cn1 (stereo not shown) [Example 19, 7-(3,5-Dimethylisoxazol-4-yl)-4-(5-fluoropyridin-2-yl)-4,5-dihydroimidazo[1,5,4-de][1,4]benzoxazin-2(1H)-one] | > 6.00
COCC(=O)N(C)[C@@H]1CCN(c2nc3ccc(-c4c(C)noc4C)c4c3n2[C@@H](c2ccccn2)CO4)C1 [Example 221, N-{(3R)-1-[(4S)-7-(3,5-dimethylisoxazol-4-yl)-4-pyridin-2-yl-4,5-dihydroimidazo[1,5,4-de][1,4]benzoxazin-2-yl]pyrrolidin-3-yl}-2-methoxy-N-methylacetamide] | > 6.00
Cc1noc(C)c1-c1cc(F)c2nc(N(C)C)n3c2c1OCC3c1cccnc1 (stereo not shown) [Example 156, 7-(3,5-Dimethylisoxazol-4-yl)-9-fluoro-N,N-dimethyl-4-pyridin-3-yl-4,5-dihydroimidazo[1,5,4-de][1,4]benzoxazin-2-amine] | > 6.00
COCC(=O)NC1CN(c2nc3ccc(-c4c(C)noc4C)c4c3n2[C@@H](c2ccccn2)CO4)C1 [Example 234, N-{1-[(4S)-7-(3,5-dimethylisoxazol-4-yl)-4-pyridin-2-yl-4,5-dihydroimidazo[1,5,4-de][1,4]benzoxazin-2-yl]azetidin-3-yl}-2-methoxyacetamide] | > 6.00
CNC(=O)C1CCN(c2nc3ccc(-c4c(C)noc4C)c4c3n2[C@@H](c2ccccn2)CO4)CC1 [Example 189, 1-[(4S)-7-(3,5-dimethylisoxazol-4-yl)-4-pyridin-2-yl-4,5-dihydroimidazo[1,5,4-de][1,4]benzoxazin-2-yl]-N-methylpiperidine-4-carboxamide] | > 6.00
Cc1noc(C)c1-c1ccc2nc(N3CCN(C)C(=O)C3)n3c2c1OC[C@@H]3c1ccccn1 [Example 166, 4-[(4S)-7-(3,5-dimethylisoxazol-4-yl)-4-pyridin-2-yl-4,5-dihydroimidazo[1,5,4-de][1,4]benzoxazin-2-yl]-1-methylpiperazin-2-one] | > 6.00
Cc1noc(C)c1-c1ccc2nc(N3CCC3)n3c2c1OC[C@@H]3c1ccccn1 [Example 164, (4S)-2-azetidin-1-yl-7-(3,5-dimethylisoxazol-4-yl)-4-pyridin-2-yl-4,5-dihydroimidazo[1,5,4-de][1,4]benzoxazine] | > 6.00
CNC(=O)[C@@H]1CCN(c2nc3ccc(-c4c(C)noc4C)c4c3n2[C@@H](c2ccccn2)CO4)C1 [Example 249, (3R)-1-[(4S)-7-(3,5-dimethylisoxazol-4-yl)-4-pyridin-2-yl-4,5-dihydroimidazo[1,5,4-de][1,4]benzoxazin-2-yl]-N-methylpyrrolidine-3-carboxamide] | > 6.00
Cc1noc(C)c1-c1ccc2nc(N3CCC(O)CC3)n3c2c1OCC3c1ccccc1 (stereo not shown) [Example 57, 1-[7-(3,5-Dimethylisoxazol-4-yl)-4-phenyl-4,5-dihydroimidazo[1,5,4-de][1,4]benzoxazin-2-yl]piperidin-4-ol] | > 6.00
CCS(=O)(=O)N1CCCN(c2nc3ccc(-c4c(C)noc4C)c4c3n2[C@@H](c2ccccn2)CO4)CC1 [Example 248, (4S)-7-(3,5-dimethylisoxazol-4-yl)-2-[4-(ethylsulfonyl)-1,4-diazepan-1-yl]-4-pyridin-2-yl-4,5-dihydroimidazo[1,5,4-de][1,4]benzoxazine] | > 6.00
Cc1noc(C)c1-c1ccc2[nH]c(=O)n3c2c1OC(CO)C3c1ccccn1 (single isomer, unassigned) [Example 62B, 7-(3,5-Dimethylisoxazol-4-yl)-5-(hydroxymethyl)-4-pyridin-2-yl-4,5-dihydroimidazo[1,5,4-de][1,4]benzoxazin-2(1H)-one] | > 6.00
Cc1noc(C)c1-c1ccc2nc(N3CCC(NC(=O)C(C)C)CC3)n3c2c1OCC3c1ccccn1 (stereo not shown) [Example 244] | > 6.00
CCC(=O)N1CCCN(c2nc3ccc(-c4c(C)noc4C)c4c3n2[C@@H](c2ccccn2)CO4)CC1 [Example 246, (4S)-7-(3,5-dimethylisoxazol-4-yl)-2-(4-propionyl-1,4-diazepan-1-yl)-4-pyridin-2-yl-4,5-dihydroimidazo[1,5,4-de][1,4]benzoxazine] | > 6.00
Cc1n[nH]cc1-c1ccc2[nH]c(=O)n3c2c1OCC3c1ccccc1 (stereo not shown) [Example 12, 7-(3-Methyl-1H-pyrazol-4-yl)-4-phenyl-4,5-dihydroimidazo[1,5,4-de][1,4]benzoxazin-2(1H)-one] | 5.00 to 6.00
Cc1noc(C)c1-c1cc(-c2cccnc2)c2[nH]c(=O)n3c2c1OCC3c1ccccc1 (stereo not shown) [Example 52, 7-(3,5-Dimethylisoxazol-4-yl)-4-phenyl-9-pyridin-3-yl-4,5-dihydroimidazo[1,5,4-de][1,4]benzoxazin-2(1H)-one] | > 6.00
CN[C@@H]1CCN(c2nc3ccc(-c4c(C)noc4C)c4c3n2[C@@H](c2ccccn2)CO4)C1 [Example 181A, (3R)-1-[(4S)-7-(3,5-dimethylisoxazol-4-yl)-4-pyridin-2-yl-4,5-dihydroimidazo[1,5,4-de][1,4]benzoxazin-2-yl]-N-methylpyrrolidin-3-amine] | > 6.00
Cc1noc(C)c1-c1ccc2nc(N3CC[C@@H](NS(=O)(=O)C4CC4)C3)n3c2c1OC[C@@H]3c1ccccn1 [Example 218, N-{(3R)-1-[(4S)-7-(3,5-dimethylisoxazol-4-yl)-4-pyridin-2-yl-4,5-dihydroimidazo[1,5,4-de][1,4]benzoxazin-2-yl]pyrrolidin-3-yl}cyclopropanesulfonamide] | > 6.00
Cc1noc(C)c1-c1ccc2nc(N3CCNC(=O)C3)n3c2c1OC[C@@H]3c1ccccn1 [Example 172, 4-[(4S)-7-(3,5-dimethylisoxazol-4-yl)-4-pyridin-2-yl-4,5-dihydroimidazo[1,5,4-de][1,4]benzoxazin-2-yl]piperazin-2-one] | > 6.00
Cc1noc(C)c1-c1ccc2nc(N3CC(NC(=O)C4CC4)C3)n3c2c1OC[C@@H]3c1ccccn1 [Example 235, N-{1-[(4S)-7-(3,5-dimethylisoxazol-4-yl)-4-pyridin-2-yl-4,5-dihydroimidazo[1,5,4-de][1,4]benzoxazin-2-yl]azetidin-3-yl}cyclopropanecarboxamide] | > 6.00
Cc1noc(C)c1-c1ccc2nc(N3CCC(N(C)C)CC3)n3c2c1OC[C@@H]3c1ccccn1 [Example 171, 1-[(4S)-7-(3,5-dimethylisoxazol-4-yl)-4-pyridin-2-yl-4,5-dihydroimidazo[1,5,4-de][1,4]benzoxazin-2-yl]-N,N-dimethylpiperidin-4-amine] | > 6.00
CCNC(=O)[C@@H]1CCN(c2nc3ccc(-c4c(C)noc4C)c4c3n2[C@@H](c2ccccn2)CO4)C1 [Example 250, (3R)-1-[(4S)-7-(3,5-dimethylisoxazol-4-yl)-4-pyridin-2-yl-4,5-dihydroimidazo[1,5,4-de][1,4]benzoxazin-2-yl]-N-ethylpyrrolidine-3-carboxamide] | > 6.00
Cc1noc(C)c1-c1ccc2nc(C3CCN(C(=O)C4CC4)CC3)n3c2c1OC[C@@H]3c1ccccn1 [Example 111, (4S)-2-[1-(cyclopropylcarbonyl)piperidin-4-yl]-7-(3,5-dimethylisoxazol-4-yl)-4-pyridin-2-yl-4,5-dihydroimidazo[1,5,4-de][1,4]benzoxazine] | > 6.00
Cc1noc(C)c1-c1ccc2nc(N3CCNCC3)n3c2c1OC[C@@H]3c1ccccn1 [Example 150, (4S)-7-(3,5-Dimethylisoxazol-4-yl)-2-piperazin-1-yl-4-pyridin-2-yl-4,5-dihydroimidazo[1,5,4-de][1,4]benzoxazine trihydrochloride] | > 6.00

Same assay, conditions: Homo sapiens, KMS-12-BM, 72 h, 3 days, Cell Titer-GLO, read-out: KMS cellular IC50

Compound | pIC50
Cc1noc(C)c1-c1ccc2[nH]c(=O)n3c2c1OCC3c1cccnc1C(=O)N(C)C (stereo not shown) [Example 129, 3-[7-(3,5-Dimethylisoxazol-4-yl)-2-oxo-1,2,4,5-tetrahydroimidazo[1,5,4-de][1,4]benzoxazin-4-yl]-N,N-dimethylpyridine-2-carboxamide] | > 6.00
Cc1cc(-c2ccnn2C)c2c3c1[nH]c(=O)n3C(c1ccccc1)CO2 (stereo not shown) [Example 37, 9-Methyl-7-(1-methyl-1H-pyrazol-5-yl)-4-phenyl-4,5-dihydroimidazo[1,5,4-de][1,4]benzoxazin-2(1H)-one] | > 6.00
Cc1noc(C)c1-c1cc(C#N)c2[nH]c(=O)n3c2c1OCC3c1ccccn1 (stereo not shown) [Example 269A, 7-(3,5-dimethylisoxazol-4-yl)-2-oxo-4-pyridin-2-yl-1,2,4,5-tetrahydroimidazo[1,5,4-de][1,4]benzoxazine-9-carbonitrile] | > 6.00
Cc1noc(C)c1-c1ccc2nc(N3CCNCC3)n3c2c1OCC3c1ccccc1 (stereo not shown) [Example 40, 7-(3,5-Dimethylisoxazol-4-yl)-4-phenyl-2-piperazin-1-yl-4,5-dihydroimidazo[1,5,4-de][1,4]benzoxazine] | > 6.00
Cc1noc(C)c1-c1ccc2[nH]c(=O)n3c2c1OCC3c1cccnc1C#N (racemic) [Example 126, 3-[7-(3,5-Dimethylisoxazol-4-yl)-2-oxo-1,2,4,5-tetrahydroimidazo[1,5,4-de][1,4]benzoxazin-4-yl]pyridine-2-carbonitrile] | > 6.00
